Data taken from the supplement of paper PMC10307832.

Experiments:
Test in all cases: relative viability (nuclei count vs DMSO), 5 days (fraction); higher = more cells survive
Doxorubicin + Crizotinib = compound: COc1cccc2c1C(=O)c1c(O)c3c(c(O)c1C2=O)C[C@@](O)(C(=O)CO)C[C@@H]3O[C@H]1C[C@H](N)[C@H](O)[C@H](C)O1 [Doxorubicin] + C[C@@H](Oc1cc(-c2cnn(C3CCNCC3)c2)cnc1N)c1c(Cl)ccc(F)c1Cl [Crizotinib] (partner 1 µM)
Method in brief: (§1)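 After 5 days of treatment, lung cancer cells in 1536-well plates were fixed and stained in a single step (final 0.05% Triton X-100, 1% formaldehyde, 1 ug/ml Hoechst) and their nuclei counted on 4× images. Treatment had been applied by pin tool the day after seeding as one drug alone or as a fixed anchor-drug dose with five library-drug doses (not always all listed) in √10 steps. Relative viability is the nuclei count of treated wells divided by that of vehicle wells, and values are medians of duplicate plates.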

BAY61-3606 + Palbociclib = compound: COC1=C(C=C(C=C1)C2=CC3=NC=CN3C(=N2)NC4=C(C=CC=N4)C(=O)N)OC [BAY61-3606] + CC(=O)c1c(C)c2cnc(Nc3ccc(N4CCNCC4)cn3)nc2n(C2CCCC2)c1=O [Palbociclib] (partner 0.5 µM)
Method in brief: as §1

BAY61-3606 + AZD7762 = compound: COC1=C(C=C(C=C1)C2=CC3=NC=CN3C(=N2)NC4=C(C=CC=N4)C(=O)N)OC [BAY61-3606] + NC(=O)Nc1cc(-c2cccc(F)c2)sc1C(=O)N[C@H]1CCCNC1 [AZD7762] (partner 0.2 µM)
Method in brief: as §1

Doxorubicin + Decitabine = compound: COc1cccc2c1C(=O)c1c(O)c3c(c(O)c1C2=O)C[C@@](O)(C(=O)CO)C[C@@H]3O[C@H]1C[C@H](N)[C@H](O)[C@H](C)O1 [Doxorubicin] + Nc1ncn([C@H]2C[C@H](O)[C@@H](CO)O2)c(=O)n1 [Decitabine] (partner 2 µM)
Method in brief: as §1

Cell Line | relative viability (Doxorubicin + Crizotinib; first compound 0.001 µM) | relative viability (Doxorubicin + Crizotinib; first compound 0.003162 µM) | relative viability (Doxorubicin + Crizotinib; first compound 0.01 µM) | relative viability (Doxorubicin + Crizotinib; first compound 0.03162 µM) | relative viability (Doxorubicin + Crizotinib; first compound 0.1 µM) | relative viability (BAY61-3606 + Palbociclib; first compound 0.02 µM) | relative viability (BAY61-3606 + Palbociclib; first compound 0.06325 µM) | relative viability (BAY61-3606 + Palbociclib; first compound 0.2 µM) | relative viability (BAY61-3606 + Palbociclib; first compound 0.6325 µM) | relative viability (BAY61-3606 + Palbociclib; first compound 2 µM) | relative viability (BAY61-3606 + AZD7762; first compound 0.02 µM) | relative viability (BAY61-3606 + AZD7762; first compound 0.06325 µM) | relative viability (BAY61-3606 + AZD7762; first compound 0.2 µM) | relative viability (BAY61-3606 + AZD7762; first compound 0.6325 µM) | relative viability (BAY61-3606 + AZD7762; first compound 2 µM) | relative viability (Doxorubicin + Decitabine; first compound 0.001 µM) | relative viability (Doxorubicin + Decitabine; first compound 0.003162 µM) | relative viability (Doxorubicin + Decitabine; first compound 0.01 µM) | relative viability (Doxorubicin + Decitabine; first compound 0.03162 µM) | relative viability (Doxorubicin + Decitabine; first compound 0.1 µM)
PC-14 | 0.893 | 0.985 | 0.962 | 0.892 | 0.944 | 0.455 | 0.546 | 0.468 | 0.514 | 0.453 | 0.418 | 0.268 | 0.35 | 0.32 | 0.342 | 0.246 | 0.228 | 0.238 | 0.0977 | 0.0677
LK-2 | 0.29 | 0.223 | 0.235 | 0.227 | 0.272 | 0.641 | 0.74 | 0.822 | 0.697 | 0.567 | 0.369 | 0.309 | 0.472 | 0.534 | 0.361 | 0.238 | 0.376 | 0.251 | 0.258 | 0.23
201T | 1 | 1.07 | 1.05 | 1.05 | 1.04 | 0.346 | 0.349 | 0.341 | 0.397 | 0.366 | 0.592 | 0.759 | 0.752 | 0.661 | 0.688 | 0.899 | 0.879 | 0.824 | 0.835 | 0.804
HCC-78 | 0.356 | 0.332 | 0.395 | 0.352 | 0.28 | 0.438 | 0.431 | 0.486 | 0.44 | 0.522 | 0.645 | 0.51 | 0.652 | 0.487 | 0.674 | 0.749 | 0.697 | 0.717 | 0.668 | 0.533
NCI-H727 | 0.817 | 1.01 | 0.787 | 0.677 | 0.578 | 0.737 | 0.588 | 0.637 | 0.635 | 0.631 | 0.747 | 0.509 | 0.577 | 0.75 | 0.734 | 0.913 | 0.909 | – | 0.89 | 0.909
H3255 | 0.917 | 0.88 | 0.804 | 0.608 | 0.45 | 0.3 | 0.307 | 0.301 | 0.334 | 0.307 | 0.941 | 0.775 | 1.03 | 0.942 | 0.902 | – | 0.533 | 0.604 | 0.568 | 0.583
NCI-H838 | 0.8 | 0.877 | 0.87 | 0.417 | 0.234 | 0.233 | 0.2 | 0.22 | 0.247 | 0.207 | 1.06 | 0.847 | 0.954 | 0.908 | 0.895 | 0.485 | 0.47 | 0.385 | 0.328 | 0.292
NCI-H2085 | 0.924 | 0.97 | 0.943 | 0.648 | 0.63 | 0.461 | 0.487 | 0.45 | 0.46 | 0.435 | 1.01 | 1.08 | 0.969 | 1.1 | 0.942 | 0.536 | 0.5 | 0.522 | 0.521 | 0.553
